Assay results taken from US4244883A, “2a,2b-Dihomo-15-alkyl-PGF2β compounds” (The Upjohn Company, priority 1979, dated 1981).

Experiments:
intestinal lesions = settings: rat; pre-treatment; Robert, et al., Gastroenterology 69:1045 (1974); cited from earlier work
gastric lesions = assay: Cytoprotective effects: inhibition of ethanol-induced gastric lesions (ulcers) in female rats; assay type: in vivo, rat; settings: 2 mg/kg oral; for inhibition at 2 mg/kg: Rattus norvegicus, female rats 205-220 g, 30 min before 1 ml ethanol (80%) orally, examined 1 h after ethanol, read-out: % Inhibition (percent reduction in the number of gastric lesions in the treated group as compared to the control group); for cytoprotective effect (in words): female rats, 80% ethanol-induced gastric lesions
Experimental: Female rats of 205-220 g are deprived of food during the morning. At 1500 hrs, water is removed and the animals are placed in individual cages which prevent them from consuming hair or feces. The following morning, the prostaglandin analogs are administered orally at a fixed dose of 2 mg/kg in 1 ml of water containing 5% ethanol and 1% emulphor. Emulphor EL-620 is used. Thirty minutes later, 1 ml of ethanol (80%) is given orally to induce gastric lesions. One hour after ethanol administration, the animals are sacrificed with carbon dioxide, their stomachs disected out and opened along the greater curvature. Visual examination with a binocular magnifier is undertaken to determine the presence of necrotic ulcerations. The average number of ulcers per stomach is recorded. The control group of rats receiving only vehicle (ethanol 5%, emulphor 1% in water) prior to the administration of 80% ethanol is employed. From the number of ulcerations in control group animals, a percent inhibition is determined which is the percent reduction in the number of gastric lesions in the treated group as compared to the control group.
Following the procedure of Example 1, 2a,2b-dihomo-15-epi-PGF2β, methyl ester is compared for gastrointestinal cytoprotective activity with 2a,2b-dihomo-15-epi-15-methyl-PGF2β, methyl ester.

For `CCCCC[C@H](O)/C=C/[C@H]1[C@H](O)CC(=O)[C@@H]1C/C=C\CCCC(=O)O` [PGE2], the “effect on indomethacin-induced intestinal lesions (in words)” value (intestinal lesions) is listed as “effective in reducing indomethacin-inducedintestinal lesions”.
For `CCCCC[C@](C)(O)/C=C/[C@@H]1[C@@H](C/C=C\CCCCCC(=O)OC)[C@H](O)C[C@H]1O` [2a,2b-dihomo-15-methyl-PGF2β, methyl ester], the inhibition at 2 mg/kg (gastric lesions) was 96% and the “cytoprotective effect (in words)” value (gastric lesions) was “virtually totally cytoprotective”.
For `CCCCC[C@@](C)(O)/C=C/[C@@H]1[C@@H](C/C=C\CCCCCC(=O)OC)[C@H](O)C[C@H]1O` [2a,2b-dihomo-15-epi-15-methyl-PGF2β, methyl ester], the inhibition at 2 mg/kg (gastric lesions) was 100% and the “cytoprotective effect (in words)” value (gastric lesions) was “totally cytoprotective”.
For `CCCCC[C@@H](O)/C=C/[C@@H]1[C@@H](C/C=C\CCCCCC(=O)OC)[C@H](O)C[C@H]1O` [2a,2b-dihomo-15-epi-PGF2β, methyl ester], the inhibition at 2 mg/kg (gastric lesions) was 2% and the “cytoprotective effect (in words)” value (gastric lesions) was “negligable cytoprotective effects”.
With `CCCCC[C@H](O)/C=C/[C@@H]1[C@@H](C/C=C\CCCCCC(=O)OC)[C@H](O)C[C@H]1O` [2a,2b-dihomo-PGF2β, methyl ester] the inhibition at 2 mg/kg (gastric lesions) was 32% and the “cytoprotective effect (in words)” value (gastric lesions) was “only modest cytoprotective effects”.
